The text below walks through data of ChEMBL document CHEMBL5154846, “Adjusted degradation of BRD4 S and BRD4 L based on fine structural modifications of the pyrrolopyridone scaffold” (Eur J Med Chem, 2022).

The structures appear in SMILES notation. Active and inactive are the calls of the source. The calls are words filed in the database; no cut-off is given here.

Experiment [1] relates to MV4-11. Nature of the experiment: Antiproliferative activity against human MV4-11 cells incubated for 72 hrs by CCK8 assay. The conditions noted are these: MV4-11, 72 h. The experiment is classed as functional, cell-based. In general terms: Formazan colour is commonly taken as a measure of viable cells.
Experiment [2] has as its target Bromodomain-containing protein 2 (Homo sapiens) (UniProt P25440). Description: Protac activity at BRD2 in human MV4-11 cells at 100 nM measured after 24 hrs by immunoblot analysis. The experiment is classed as cell-based. On the technique in general: In western blotting, separated proteins are transferred to a membrane and probed.
Experiment [3] addresses Bromodomain-containing protein 3 (Homo sapiens) (UniProt Q15059). Description: Protac activity at BRD3 in human MV4-11 cells at 100 nM measured after 24 hrs by immunoblot analysis. The experiment is classed as cell-based.
Experiment [4] deals with T1, Bromodomain-containing protein 4 (Homo sapiens, UniProt O60885). Nature of the experiment: Inhibition of BRD4-BD2 (unknown origin) preincubated for 30 mins followed by substrate addition and measured after 3 hr by HTRF.
For experiment [5], the target named is T1, Bromodomain-containing protein 4. Nature of the experiment: Protac activity at BRD4 short isoform in human MV4-11 cells at 100 nM for 24 hrs by immunoblot analysis. The experiment is classed as cell-based.
Experiment [6] shares this target. Nature of the experiment: Inhibition of BRD4-BD1 (unknown origin) preincubated for 30 mins followed by substrate addition and measured after 3 hr by HTRF assay. For orientation: In TR-FRET formats the signal depends on donor and acceptor labels being close together.
Experiment [7] has as its target Bromodomain-containing protein 2 (Homo sapiens) (UniProt P25440). Nature of the experiment: Protac activity at BRD2 in human MV4-11 cells at 100 nM measured after 4 hrs by immunoblot analysis. The experiment is classed as cell-based.
Experiment [8] has as its target T1, Bromodomain-containing protein 4. Description: Protac activity at BRD4 short isoform in human MV4-11 cells at 100 nM for 12 hrs by immunoblot analysis. The experiment is classed as cell-based.
Experiment [9] deals with Bromodomain-containing protein 3 (Homo sapiens) (UniProt Q15059). Description: Protac activity at BRD3 in human MV4-11 cells at 100 nM measured after 4 hrs by immunoblot analysis. The experiment is classed as cell-based.
Experiment [10] deals with MV4-11. Description: Cell cycle arrest in human MV4-11 cells assessed as accumulation at G2/M phase at 0.1 uM for 24 hrs by PI/RNase staining based flow cytometry analysis. The experiment is classed as functional.
Experiment [11] deals with MV4-11. Nature of the experiment: Anti-proliferative activity in human MV4-11 cells assessed as downregulation of c-myc levels at 10 to 1000 nM incubated for 4 hrs by western blot analysis. The experiment is classed as functional, cell-based. The conditions noted are these: dose 10-1000 nM.
The subject of experiment [12] is MV4-11. Description: Anti-proliferative activity in human MV4-11 cells assessed as downregulation of c-myc levels at 100 nM incubated for 24 hrs by western blot analysis. The experiment is classed as functional, cell-based.

Chain of Bromodomain-containing protein 2 (Homo sapiens) (P25440 whole entry, looked up, canonical isoform): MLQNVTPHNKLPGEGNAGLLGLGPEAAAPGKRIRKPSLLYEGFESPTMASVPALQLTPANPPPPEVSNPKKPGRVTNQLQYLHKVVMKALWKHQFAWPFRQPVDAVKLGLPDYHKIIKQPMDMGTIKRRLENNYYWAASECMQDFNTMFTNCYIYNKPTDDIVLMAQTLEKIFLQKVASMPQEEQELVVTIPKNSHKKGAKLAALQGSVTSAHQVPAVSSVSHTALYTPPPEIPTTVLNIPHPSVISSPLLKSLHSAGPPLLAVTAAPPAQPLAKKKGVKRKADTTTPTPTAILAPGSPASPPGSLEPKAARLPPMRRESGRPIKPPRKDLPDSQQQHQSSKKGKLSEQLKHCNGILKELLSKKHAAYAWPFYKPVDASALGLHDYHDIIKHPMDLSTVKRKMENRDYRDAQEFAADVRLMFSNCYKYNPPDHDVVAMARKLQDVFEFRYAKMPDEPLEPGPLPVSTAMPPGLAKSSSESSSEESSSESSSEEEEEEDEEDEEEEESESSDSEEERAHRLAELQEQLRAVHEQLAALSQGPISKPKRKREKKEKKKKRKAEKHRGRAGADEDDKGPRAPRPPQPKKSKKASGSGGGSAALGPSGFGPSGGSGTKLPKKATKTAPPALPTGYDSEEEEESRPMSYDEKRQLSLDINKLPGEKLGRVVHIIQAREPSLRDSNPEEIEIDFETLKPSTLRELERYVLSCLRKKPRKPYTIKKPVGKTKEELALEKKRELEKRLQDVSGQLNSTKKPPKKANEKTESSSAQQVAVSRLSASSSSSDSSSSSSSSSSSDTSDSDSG
Chain of Bromodomain-containing protein 3 (Homo sapiens) (Q15059 2-726 limits assumed): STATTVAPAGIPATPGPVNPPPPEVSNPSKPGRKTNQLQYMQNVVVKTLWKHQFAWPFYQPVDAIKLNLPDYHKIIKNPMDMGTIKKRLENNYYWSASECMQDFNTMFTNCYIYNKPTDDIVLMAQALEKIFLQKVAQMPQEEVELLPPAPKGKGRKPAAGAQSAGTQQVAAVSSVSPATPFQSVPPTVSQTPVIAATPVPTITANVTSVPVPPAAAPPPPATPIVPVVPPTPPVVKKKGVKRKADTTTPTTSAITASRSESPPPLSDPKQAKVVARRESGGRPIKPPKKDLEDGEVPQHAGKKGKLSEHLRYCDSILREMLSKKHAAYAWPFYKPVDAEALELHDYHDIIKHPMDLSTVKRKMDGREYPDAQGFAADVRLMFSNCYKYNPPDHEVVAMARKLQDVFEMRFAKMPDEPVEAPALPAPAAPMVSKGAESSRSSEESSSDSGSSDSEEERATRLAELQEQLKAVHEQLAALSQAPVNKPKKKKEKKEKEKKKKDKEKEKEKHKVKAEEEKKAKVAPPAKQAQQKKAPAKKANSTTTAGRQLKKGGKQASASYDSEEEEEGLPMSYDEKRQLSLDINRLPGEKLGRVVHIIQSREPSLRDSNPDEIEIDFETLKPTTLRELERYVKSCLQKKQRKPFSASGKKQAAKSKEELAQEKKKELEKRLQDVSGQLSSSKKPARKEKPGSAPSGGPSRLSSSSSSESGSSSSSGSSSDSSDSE

What is called IC50 is the concentration that gives 50% inhibition. Higher therefore signals weaker potency in that assay. In the experiment with MV4-11 [1], `CCNC(=O)c1cc2c(-c3cc(C(C)(C)O)ccc3Oc3c(C)cc(F)cc3C)cn(C)c(=O)c2[nH]1` [ABBV-744] gave a half-inhibitory concentration (IC50) of 153 nM.
With `Cn1cc(-c2ccccc2Oc2ccccc2)c2cc(C(=O)NCc3ccc(C(=O)NCCCCNc4cccc5c4C(=O)N(C4CCC(=O)NC4=O)C5=O)cc3)[nH]c2c1=O` (stereo unspecified), the outcome in experiment [2], in experiment [3], in experiment [5], in experiment [7], in experiment [8] and in experiment [9] was Active. The IC50 in experiment [4] is 27.2 nM; in [6], 34.6 nM.
For `C=C(C)c1ccc(OC(C)C)c(-c2cn(C)c(=O)c3[nH]c(C(=O)NCc4ccc(C(=O)NCCCCNc5cccc6c5C(=O)N(C5CCC(=O)NC5=O)C6=O)cc4)cc23)c1` (stereo unspecified), the IC50 in experiment [4] was 101 nM; in experiment [6], 119 nM. For the same compound, the result in [5] was Active.
`Cn1cc(-c2ccccc2Oc2ccccc2)c2cc(C(=O)NCCCCNc3cccc4c3C(=O)N(C3CCC(=O)NC3=O)C4=O)[nH]c2c1=O` (stereo unspecified): the result in [2], in experiment [3], in [5], in [7] and in experiment [9] was Active. Also, the IC50 was 84.9 nM in [4] and 472 nM in experiment [6].
On to `CC(C)Oc1ccc(C(C)(C)O)cc1-c1cn(C)c(=O)c2[nH]c(C(=O)NCc3ccc(C(=O)NCCCCNc4cccc5c4C(=O)N(C4CCC(=O)NC4=O)C5=O)cc3)cc12` (stereo unspecified), for which the half-maximal inhibitory concentration (IC50) in experiment [4] amounted to 13.9 nM; in [6] it was 24.6 nM.
On to `Cn1cc(-c2ccccc2Oc2ccccc2)c2cc(C(=O)NCCCCC(=O)NCCCCNc3cccc4c3C(=O)N(C3CCC(=O)NC3=O)C4=O)[nH]c2c1=O` (stereo unspecified), for which the result in [2], in experiment [3], in experiment [5], in [7] and in experiment [9] was Active. In addition, the IC50 in experiment [4] stood at 24.3 nM; in experiment [6], 185 nM.
Consider `Cn1cc(-c2ccccc2OC2CC2)c2cc(C(=O)NCc3ccc(C(=O)NCCCCNc4cccc5c4C(=O)N(C4CCC(=O)NC4=O)C5=O)cc3)[nH]c2c1=O` (stereo unspecified), for which the half-inhibitory concentration (IC50) came to 96.4 nM in experiment [4] and 54.3 nM in experiment [6]. Also, the outcome in experiment [5] and in experiment [8] was Active.
As for `Cn1cc(-c2ccccc2Oc2ccccc2)c2cc(C(=O)NCCCCCCNc3cccc4c3C(=O)N(C3CCC(=O)NC3=O)C4=O)[nH]c2c1=O` (stereo unspecified), the result in [2], in [3], in [5], in experiment [7] and in experiment [9] was Active. The IC50 stood at 39.4 nM in experiment [4] and 441 nM in [6].
Consider `Cn1cc(-c2cccc(C(C)(C)O)c2)c2cc(C(=O)NCc3ccc(C(=O)NCCCCNc4cccc5c4C(=O)N(C4CCC(=O)NC4=O)C5=O)cc3)[nH]c2c1=O` (stereo unspecified), for which the IC50 in experiment [4] amounted to 73 nM; in experiment [6] it was 45.4 nM.
For the compound `Cn1cc(-c2cc(C(C)(C)O)ccc2Oc2ccccc2)c2cc(C(=O)NCc3ccc(C(=O)NCCCCNc4cccc5c4C(=O)N(C4CCC(=O)NC4=O)C5=O)cc3)[nH]c2c1=O` (stereo unspecified), the figures for the IC50 in [4] and in experiment [6] were 3.82 nM and 29.5 nM, respectively.
For the compound `Cn1cc(-c2cc(C(C)(C)O)ccc2OC2CC2)c2cc(C(=O)NCc3ccc(C(=O)NCCCCNc4cccc5c4C(=O)N(C4CCC(=O)NC4=O)C5=O)cc3)[nH]c2c1=O` (stereo unspecified), the values for the IC50 in [4] and in experiment [6] were 7.79 nM and 22.7 nM, respectively.
For the compound `C=C(C)c1ccc(Oc2ccccc2)c(-c2cn(C)c(=O)c3[nH]c(C(=O)NCc4ccc(C(=O)NCCCCNc5cccc6c5C(=O)N(C5CCC(=O)NC5=O)C6=O)cc4)cc23)c1` (stereo unspecified), the figures for the IC50 in [4] and in [6] were 74.1 nM and 241 nM, respectively. Further, the result in [5] was Active.
Turning to `Cc1sc2c(c1C)C(c1ccc(Cl)cc1)=N[C@@H](CC(=O)NCCCCCCCCNC(=O)COc1cccc3c1C(=O)N(C1CCC(=O)NC1=O)C3=O)c1nnc(C)n1-2` (stereo partly specified), the outcome (in experiment [2]; in experiment [3]; in the experiment with MV4-11 [10]; with MV4-11 [11]; in experiment [7]; with MV4-11 [12]) was Active. Besides, the outcome in experiment [9] was Active. In the experiment with MV4-11 [1], this compound returned an IC50 of 10.3 nM.
In the case of `Cn1cc(-c2ccccc2)c2cc(C(=O)NCc3ccc(C(=O)NCCCCNc4cccc5c4C(=O)N(C4CCC(=O)NC4=O)C5=O)cc3)[nH]c2c1=O` (stereo unspecified), the concentration for half-maximal inhibition (IC50) in experiment [4] came to 296 nM; in experiment [6], 99.8 nM.
Regarding `COc1cc(C(=O)NCCOCCOCCOCCNC(=O)C[C@@H]2N=C(c3ccc(Cl)cc3)c3c(sc(C)c3C)-n3c(C)nnc32)ccc1NC(=O)[C@@H]1N[C@@H](CC(C)(C)C)[C@](C#N)(c2ccc(Cl)cc2F)[C@H]1c1cccc(Cl)c1F`, in experiment [5], the result was Active.
On to `Cn1cc(-c2ccccc2Oc2ccccc2)c2cc(C(=O)NCCCCCC(=O)NCCCCNc3cccc4c3C(=O)N(C3CCC(=O)NC3=O)C4=O)[nH]c2c1=O` (stereo unspecified), for which the outcome in experiment [2], in experiment [3], in experiment [5], in experiment [7] and in experiment [9] was Active. Besides, the values for the IC50 in experiment [4] and in [6] were 38.8 nM and 278 nM, respectively.
As for `CC(C)Oc1ccccc1-c1cn(C)c(=O)c2[nH]c(C(=O)NCc3ccc(C(=O)NCCCCNc4cccc5c4C(=O)N(C4CCC(=O)NC4=O)C5=O)cc3)cc12` (stereo unspecified), the IC50 in experiment [4] came to 91.5 nM; in experiment [6], 83.7 nM. The result in [5] was Active.
Consider `Cn1cc(-c2ccccc2Oc2ccccc2)c2cc(C(=O)NCCCCCCC(=O)NCCCCNc3cccc4c3C(=O)N(C3CCC(=O)NC3=O)C4=O)[nH]c2c1=O` (stereo unspecified), for which the result in experiment [2], in experiment [3], in experiment [5], in experiment [7] and in experiment [9] was Active. For the same compound, the IC50 worked out at 35.7 nM in [4] and 332 nM in experiment [6].
